Earlier results in US20220265629A1, “TREATMENT OF SYSTOLIC DYSFUNCTION AND HEART FAILURE WITH REDUCED EJECTION FRACTION WITH THE COMPOUND (R)-4-(1-((3-(DIFLUOROMETHYL)-1-METHYL-1H-PYRAZOL-4-YL)SULFONYL)-1-FLUOROETHYL)-N-(ISOXAZOL-3-YL)PIPERIDINE-1-CARBOXAMIDE” (MyoKardia, Inc., priority 2019, published 2022).

How the values were obtained:
healthy volunteers = settings: correlated with increase in SET; cited from earlier work
HFrEF = settings: Teerlink et al.; cited from earlier work

COC(=O)N1CCN(Cc2cccc(NC(=O)Nc3ccc(C)nc3)c2F)CC1 [omecamtiv mecarbil]
ischemia at high doses (healthy volunteers): resulted in ischemia | troponin (HFrEF): Mild troponin elevation
